Results from patent publication US12325708B2, “Adenosine 2 receptor antagonists” (Nektar Therapeutics, priority 2019, dated 2025).
Converted amounts (≈) assume the structure as drawn. Where two headings read alike, the source gives them in different places.

Columns and labels:
A2A receptor = biological target: T1, A2A receptor (Homo sapiens, UniProt P29274); assay: Radioligand receptor binding assay, A2A receptor; settings: cell membranes overexpressing A2A receptor, read-out: Potency Ki A2A
T1 construct: purchased
How it was run: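 Membranes from cell lines overexpressing human A2A, A1 or A3 receptors were incubated 60 min at room temperature with the receptor-appropriate [3H] tracer. After filtration and washing in 50 mM Tris HCl pH 7.5, bound label was counted by scintillation. IC50 came from nonlinear regression and Ki from the Cheng-Prusoff equation.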

[1] = Plasma protein binding (PPB), mouse; assay type: in vitro ADME; settings: read-out: Plasma protein binding (PPB) (fu)
Solubility = assay type: physicochemical
[2] = Plasma pharmacokinetic parameters of Compound 1 in mice; assay type: in vivo; settings: mouse, PO 30 mg/kg
Excerpt: Pharmacokinetic parameters were further estimated in vivo after IV or PO administration of Compound 1 in mice and dogs with the results provided in Table 4 below.

[3] = Plasma protein binding (PPB), dog; assay type: in vitro ADME; settings: read-out: Plasma protein binding (PPB) (fu)
[4] = Hepatic clearance in vitro CLint, human liver microsomes; assay type: in vitro ADME
[5] = Plasma protein binding (PPB), rat; assay type: in vitro ADME; settings: read-out: Plasma protein binding (PPB) (fu)
[6] = Plasma pharmacokinetic parameters following intravenous (IV) or oral (PO) administration in rats; assay type: in vivo, Sprague-Dawley rats; settings: rat; for Vd: read-out: Vss obs; for AUC / bioavailability: oral; for Total clearance as % liver blood flow: IV; for Plasma concentrations post 8 hr: IV 0.5 mg/kg and PO 2.5 mg/kg; for F: PO 2.5 mg/kg vs IV 0.5 mg/kg
How it was run: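 Fasted male Sprague-Dawley rats (230-250 g, n=2/group), dosed 0.5 mg/kg IV (jugular) or 2.5 mg/kg PO gavage in water. Plasma sampled 2–1440 min, analyzed by LC-MS/MS; non-compartmental analysis with nominal doses/times gave AUC, Cmax, Tmax, CL, Vss, MRTlast, F.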

[7] = male, Sprague-Dawley, plasma, intravenous, 0.5 mg/kg, Table 2 summary of Example 27, values marked 1 are the average of experiments
[8] = male, Sprague-Dawley, plasma, iv, 0.5 mg/kg, IV 0.5 mg/kg, injectable water
[9] = male, Sprague-Dawley, plasma, 2.5 mg/kg, Table 2 summary of Example 27, values marked 1 are the average of experiments
[10] = male, Sprague-Dawley, plasma, po, 2.5 mg/kg, PO 2.5 mg/kg via gavage, injectable water
[11] = male, Sprague-Dawley, plasma, po, 2.5 mg/kg, PO 2.5 mg/kg via gavage, injectable water, read-out: Cmax
[12] = male, Sprague-Dawley, plasma, po, 2.5 mg/kg, PO 2.5 mg/kg via gavage, injectable water, read-out: Tmax
[13] = IV 0.5 mg/kg, injectable water, listed as Compound 1 (#1), 0.5 mg/kg
[14] = IV 0.5 mg/kg, injectable water, listed as Compound 1 (#2), 0.5 mg/kg
[15] = PO 2.5 mg/kg via gavage, injectable water, listed as Compound 1 (#1), 2.5 mg/kg
[16] = PO 2.5 mg/kg via gavage, injectable water, listed as Compound 1 (#2), 2.5 mg/kg
[17] = IV 0.5 mg/kg, injectable water, listed as Compound 4 (#2), 0.5 mg/kg
[18] = PO 2.5 mg/kg via gavage, injectable water, listed as Compound 4 (#2), 2.5 mg/kg

T1 sequence (P29274 whole entry): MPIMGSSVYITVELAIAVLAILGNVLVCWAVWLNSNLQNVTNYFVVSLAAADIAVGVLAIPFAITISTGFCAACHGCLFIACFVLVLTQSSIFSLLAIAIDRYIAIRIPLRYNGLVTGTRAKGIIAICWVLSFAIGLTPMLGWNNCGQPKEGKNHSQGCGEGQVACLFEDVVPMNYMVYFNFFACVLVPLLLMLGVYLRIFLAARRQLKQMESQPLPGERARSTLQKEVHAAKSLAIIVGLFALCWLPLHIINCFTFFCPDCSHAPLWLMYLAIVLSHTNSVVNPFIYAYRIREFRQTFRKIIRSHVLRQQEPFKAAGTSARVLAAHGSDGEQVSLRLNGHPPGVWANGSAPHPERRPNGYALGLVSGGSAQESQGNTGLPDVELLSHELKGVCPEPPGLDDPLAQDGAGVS

In the case of `COCCOc1ccc(N2CCN(CCN(C)c3cc4nc(-c5ncco5)nn4c(N)n3)CC2)cc1` [Compound 1, N^7-(2-{4-[4-(2-methoxyethoxy)phenyl]piperazin-1-yl}ethyl)-N^7-methyl-2-(1,3-oxazol-2-yl)[1,2,4]triazolo[1,5-c]pyrimidine-5,7-diamine], the Ki (A2A receptor) is reported as 6 nM, the fraction unbound [1] is reported as 0.19 and the solubility (Solubility; pH ~3) is reported as ~5000 µM (≈ 2470 µg/mL). For the same compound, the solubility (Solubility; pH ~7) was 20 to 40 µM (≈ 9.87 to 19.7 µg/mL), the AUC(0-inf) [2] was 5760 ng·h/mL and the fraction unbound [3] was 0.43. It also gave a microsomal CLint [4] of 43 µL/min/mg, a fraction unbound [5] of 0.15 and a clearance [6, 7] of 31 mL/min/kg. For the same compound, the AUC(0-inf) [6, 8] was 340 ng·h/mL, the AUC(0-t) [6, 8] was 335 ng·h/mL and the MRT last [6, 8] was 84.6 to 87 min. For the same compound, the clearance [6, 8] was 24.6 to 36.1 mL/min/kg, the Cmax ([6]; male, Sprague-Dawley, plasma, iv, 0.5 mg/kg, IV 0.5 mg/kg, injectable water, read-out: Cmax) was 311 ng/mL and the Tmax ([6]; male, Sprague-Dawley, plasma, iv, 0.5 mg/kg, IV 0.5 mg/kg, injectable water, read-out: Tmax) was 2 min. The Vd [6, 8] was 2.17 to 3.44 L/kg, the AUC [6, 9] was 969 ng·h/mL and the bioavailability [6, 9] was 71%. The AUC(0-inf) [6, 10] was 1280 ng·h/mL, the AUC(0-t) [6, 10] was 1220 ng·h/mL and the Cmax [6, 11] was 242 to 367 ng/mL. For the same compound, the Tmax [6, 12] was 45 to 60 min, the “Total clearance as % liver blood flow” value [6] was 40-60 % liver blood flow and the “Plasma concentrations post 8 hr” value [6] was “below the limit of quantitation”. For the same compound, the AUCinf [6, 13] was 233 ng·h/mL, the AUClast [6, 13] was 228 ng·h/mL and the CL [6, 13] was 36.1 mL/min/kg. It also gave a Cmax [6, 13] of 207 ng/mL, an MRTlast [6, 13] of 84.6 min and a Vss obs [6, 13] of 3.44 L/kg. The CL [6, 14] was 24.6 mL/min/kg, the MRTlast [6, 14] was 87 min and the Vss obs [6, 14] was 2.17 L/kg. It also gave an AUCinf [6, 15] of 777 ng·h/mL, an AUClast [6, 15] of 718 ng·h/mL and a Cmax [6, 15] of 242 ng/mL. The Tmax [6, 15] was 45 min, the Cmax [6, 16] was 367 ng/mL and the Tmax [6, 16] was 60 min. For the same compound, the F ([6]; listed as Compound 1 (#1)) was 66.8% and the F ([6]; listed as Compound 1 (#2)) was 75.5%.

Work on `COCCOc1cnc(N2CCN(CCN(C)c3cc4nc(-c5ncco5)nn4c(N)n3)CC2)c(F)c1` [Compound 4, N^7-(2-{4-[3-fluoro-5-(2-methoxyethoxy)pyridin-2-yl]piperazin-1-yl}ethyl)-N^7-methyl-2-(1,3-oxazol-2-yl)[1,2,4]triazolo[1,5-c]pyrimidine-5,7-diamine] yielded a Ki (A2A receptor) of 2 nM, a clearance [6, 7] of 34 mL/min/kg and an AUC(0-inf) [6, 8] of 251 ng·h/mL. It also gave an AUC(0-t) [6, 8] of 249 ng·h/mL, an MRT last [6, 8] of 53.4 min and a clearance [6, 8] of 26.8 to 33.6 mL/min/kg. It also gave a Vd [6, 8] of 1.93 L/kg, an AUC [6, 9] of 898 ng·h/mL and a bioavailability [6, 9] of 78%. The AUC(0-inf) [6, 10] was 978 ng·h/mL, the AUC(0-t) [6, 10] was 898 ng·h/mL and the MRT last [6, 10] was 153 min. For the same compound, the Cmax [6, 11] was 231 ng/mL, the Tmax [6, 12] was 30 to 45 min and the “Total clearance as % liver blood flow” value [6] was 45-56 % liver blood flow. For the same compound, the “Plasma concentrations post 8 hr” value [6] was “below the limit of quantitation”, the CL ([6]; IV 0.5 mg/kg, injectable water, listed as Compound 4 (#1), 0.5 mg/kg) was 33.6 mL/min/kg and the AUCinf [6, 17] was 312 ng·h/mL. The AUClast [6, 17] was 310 ng·h/mL, the CL [6, 17] was 26.8 mL/min/kg and the MRTlast [6, 17] was 54.8 min. For the same compound, the Tmax ([6]; PO 2.5 mg/kg via gavage, injectable water, listed as Compound 4 (#1), 2.5 mg/kg) was 45 min, the AUCinf [6, 18] was 707 ng·h/mL and the AUClast [6, 18] was 662 ng·h/mL. For the same compound, the Cmax [6, 18] was 172 ng/mL, the Tmax [6, 18] was 30 min and the F ([6]; listed as Compound 4 (#1)) was 77.8%. It also gave an F ([6]; listed as Compound 4 (#2)) of 45.4%.
